{"source": "patent US20260241036A1", "about": "“CHEMOGENETICS-BASED THERAPY FOR NEUROLOGICAL DISORDERS” (GATEWAY BIOTECHNOLOGY, INC., priority 2023, published 2026)", "key": {"[1]": {"test": "SBAD testing of a control group of SBAD trained animals given CNO, to rule out off-target effects of CNO", "assay_type": "in vivo, mice", "conditions": "control group of three SBAD trained animals; CNO IP 5 mg/kg one hour before SBAD testing", "method": "(§1) Using a shuttle box divided into two compartments, mice were trained to cross from side to side with sound cues in the “Go” trials and remain still in the absence of sound in the “No-Go” trials for 15 days. […] The sound cues were randomly played as white noise or narrow-band noise at 5, 10, 16, 20, and 32 kHz with sound intensities randomly at 75, 80, or 85 dB. […] Additionally, a hurdle was added on training 11 to reinforce the training. After the 15th training day, mice were tested for 3 days to obtain a baseline score to be compared after noise exposure, as well as retraining for 3 days.\nA chemogenetic-based model was established by using DREADDs to target excitatory neurons of the IC to establish a more reliable and efficient tinnitus model in mice. Stereotaxic microinjections of excitatory DREADDs [AAV8-CaMKIIa-HM3D-mCherry] were performed in these C57BL/6J mice, similar to previous studies (Saloman et al., 2016; Smith et al. 2016; Horii-Hayashi & Nishi 2021). Coordinates for microinjections were based on the atlas of Paxinos and Watson (2006) (AP: −5.00 mm, ML: +/−1.00 mm, DV: −1.50 mm). Mice were anesthetized with 5% isoflurane and placed in a stereotaxic head frame. During surgery mice were maintained at a 1.5-2% isoflurane level. Hair was removed and a vertical incision was made to expose the skull. The skull was leveled between bregma and lambda. […]"}, "[2]": {"system": "excitatory neurons of the IC", "test": "Sound-based avoidance detection (SBAD) testing in the chemogenetic model of tinnitus (excitatory DREADD injected into the IC, activated by CNO)", "assay_type": "in vivo, C57BL/6J mice", "method": "as §1\nFollowing the successful completion of training so that mice reached a high percentage of success in the trials, the mice were exposed to a noise-induced trauma for tinnitus. To ensure that the mice still have their hearing, one ear was protected with an ear plug, while the other ear was exposed to the noise. The mice were placed in a sound booth where they were exposed to 120 dB broadband noise at 4-25 kHz for 2-4 hours. Following the noise exposure, the mice were housed for one month, and then tested to see if they have developed tinnitus. In these testing periods, the mice were tested for three days in the shuttle boxes, where they underwent the Go and No-Go trials, however in the No-Go trials the mice were not shocked, as it is expected that mice with tinnitus would cross compartments in the absence of a sound cue. The mice were continued to be shocked in the Go trials in order to ensure that they have retained their hearing and can hear the sound cues. […] To insure there is a significant difference in the No-Go trial scores, chi-square tests were completed comparing the post-noise exposure tests to the baseline tests. However, if tinnitus is not present in the mice, tests were done after waiting one more month, and another if needed.\nA chemogenetic-based model was established by using DREADDs to target excitatory neurons of the IC to establish a more reliable and efficient tinnitus model in mice. […]"}}, "data": [{"smiles": "C[N+]1([O-])CCN(C2=Nc3cc(Cl)ccc3Nc3ccccc32)CC1", "note": "[CNO, Clozapine-N-oxide]", "values": [{"measurement": "Go and No-Go scores post-CNO injections (behavioral side effects of CNO)", "setting": "[1]", "value": "remained stable"}, {"measurement": "number of animals tested positive for tinnitus", "setting": "[2]; of eight animals, one hour after IP injection of CNO, chi-squared, p<0.03", "value": "seven"}, {"measurement": "animals tested positive for tinnitus (share of animals)", "setting": "[2]; one hour after IP injection of CNO, eight mice with 50 or 150 nL AAV8-CaMKIIa-HM3D-mCherry bilaterally in the IC, chi-squared, p<0.03", "value": 87, "unit": "%"}, {"measurement": "SBAD No-Go scores post-CNO injections compared to baseline and saline injections", "setting": "[2]; post-hoc t-tests (Bonferoni adjusted), p<.001, mice with AAV8-CaMKIIa-HM3D-mCherry in the IC", "value": "significantly reduced"}]}]}
